Experimental findings from article PMC11574108, “4-Furanylvinylquinoline derivative as a new scaffold for the design of oxidative stress initiator and glucose transporter inhibitor drugs” (Scientific Reports, 2024) are described below.

Bounds are passed on as bounds.

A word on the IC50: it is the concentration at which inhibition is half-maximal.

Test [1] relates to tested cancer lines. The test can be described thus: Antiproliferative MTS assay, summary over the panel. It is filed as cell-based. The settings on record: Homo sapiens; against most of the tested cancer lines. The procedure: (§1) The cells were seeded in 96-well plates (Nunc) with 5,000 or 4,000 cells per well for the cancer cells and NHDF, respectively, and incubated under standard conditions at 37 °C overnight. The culture media were then changed for freshly prepared solutions of the tested compounds in various concentrations. After 72-h incubation the antiproliferative assay was carried out as follows: the solutions of the compounds were changed in each well to 100 µL DMEM without phenol red and 20 µL of CellTiter 96 AQueous One Solution-MTS (Promega). The plates were incubated for 1 h at 37 °C, and the absorbance was then measured at 490 nm using a multi-plate reader (Synergy 4, BioTek). The experiment for each sample was repeated at least three times. The results are presented as the half-maximal inhibitory concentration (IC50) values, which were estimated in comparison to untreated cells (control) and calculated using GraphPad Prism v.8.0 (USA).
However, the antiproliferative activity of derivative 13 with furan a ring was surprising. […] For this purpose, we selected two pancreatic cancer cell lines: AsPC-1, which is characterised by a deletion of the p53 protein[20] and PANC-1, which carries an R273H mutation. […] In light of the above-mentioned facts, we also determined the cytotoxicity of the GLUT inhibitor BAY-876, which is based on a quinoline scaffold. […]

Test [2] has as its system CT-DNA. The test can be described thus: Intercalation, spectrophotometric study on CT-DNA. It is filed as binding, calf. Particulars: 18 µM CT-DNA, 1.5 h, 37 °C, absorption spectra. The procedure: Lyophilized calf-thymus DNA (CT-DNA; Sigma-Aldrich) was dissolved in 10 mM Tris-HCl (pH 7.9), mixed gently, and kept overnight at 4 °C. The purity of the CT-DNA solution was determined by measurement of the ratio of UV absorbance at 260 and 280 nm. […] The tested compound was dissolved in DMSO to give a concentration of 8.35 mM. This stock solution was used for preparing new solutions (25, 12.5, 6, and 3 µM) in 1 mL of 10 mM Tris-HCl (pH 7.9). Next, 18 µM CT-DNA was added to the prepared solutions, and the samples were incubated for 1.5 h at 37 °C with occasional vortexing. The measurements of the absorption spectra were performed using a Hitachi U-2900 spectrophotometer in the range of 200–500 nm. The obtained data were analysed using GraphPad Prism v.8.0 (USA).
To determine whether and to what extent the compound interacts with DNA, we also performed a spectrophotometric study on CT-DNA. […] (Fig. S2). Nevertheless, under the effect of stress-induced DNA damage in cells, […], which inhibited the CDK1 and cyclin B1 complex. This had the effect of arresting the cell cycle in the G2/M phase in an attempt to repair the DNA damages or induce apoptosis[29],[30]. Abnormal CDK1 activation is often thought to be connected with tumourigenesis. […]

For test [3], the system named is HCT 116 p53-/-. As to the kind of experiment: Apoptosis induction assay (Annexin V/7-AAD). It is filed as cell-based, human. Particulars: 0.5 µM, 48 h; control nearly 6%. The procedure: The cells were seeded in 35 mm Petri dishes (200,000 per dish) and incubated at 37 °C overnight. The following day, the medium was changed for a freshly prepared 0.5 µM solution of 13. Analysis was carried out after 48 h using an FITC Annexin V Apoptosis Detection KIT with 7-AAD (Bio-Legend) according to the manufacturer’s protocol. In brief, both adherent and detached cells were collected, washed two times with cold PBS, and centrifuged at 300 g (5 min). Next, the cells were resuspended in 100 µL Annexin V Binding Buffer, 5 µL of FITC Annexin V, and 5 µL 7-AAD Viability Staining Solution. The samples were incubated in the dark for 15 min at room temperature. The percentage of live and apoptotic (sum of early and late apoptotic) cells was estimated using a Muse™ Cell Analyzer. The experiments were carried out three times.
Because derivative 13 affected the cell cycle progression, we decided to determine the type of induced cell death by focusing on the apoptosis pathway. The analysis was performed by measuring the green fluorescence of the annexin V – FITC dye conjugate using capillary flow cytometry. Positive staining is observed when the annexin V binds to the disintegrated membrane of apoptotic cells. […]

For test [4], the system named is PANC-1. The test can be described thus: Monolayer antiproliferative MTS assay. It is filed as cell-based, human. The settings on record: 2D monolayer; for IC50: MTS, 72-h incubation. The procedure:
as §1
(§2) However, the antiproliferative activity of derivative 13 with furan a ring was surprising. […] For this purpose, we selected two pancreatic cancer cell lines: AsPC-1, which is characterised by a deletion of the p53 protein[20] and PANC-1, which carries an R273H mutation. This mutation also occurred in the glioblastoma U-251 cell line[22],[23]. An additional non-adherent line that carries the TP53 mutation that results in the absence of p53 is the K562 leukemic cell line[24]. […] Moreover, 13 was selective toward […], as indicated by its SI values (3.35–9.41). Among all of the tested cell lines, the highest activity of the compound was found against the HCT 116 cells with the wild-type p53 protein (0.069 µM). […] The p53 protein also interacts with the metabolic pathways that are associated with glucose transport[25] as well as small molecules. In light of the above-mentioned facts, we also determined the cytotoxicity of the GLUT inhibitor BAY-876, which is based on a quinoline scaffold. […] Furthermore, BAY-876 was also toxic to normal cells.

Test [5] deals with AsPC-1. As to the kind of experiment: Monolayer antiproliferative MTS assay. It is filed as cell-based, human. Particulars: 2D monolayer; for IC50: MTS, 72-h incubation. How it is done: as §1, §2
For test [6], the system named is U-251. As to the kind of experiment: Monolayer antiproliferative MTS assay. It is filed as cell-based, human. Particulars: 2D monolayer; for IC50: MTS, 72-h incubation.
Excerpt: (§3) The human colon carcinoma cell line HCT 116 with wild-type p53 (p53^+/+) and the human glioblastoma cell line U-251 were obtained from ATCC, while the HCT 116 with a p53 deletion (p53^−/−) was kindly provided by Prof. M. Rusin from the Maria Sklodowska-Curie Memorial Cancer Center and Institute of Oncology in Gliwice, Poland. The human chronic myelogenous leukaemia cell line K562 and the normal human cell dermal fibroblast cell line NHDF were purchased from Sigma-Aldrich and PromoCell, respectively. Both the HCT 116 and U-251 cell lines were cultured in Dulbecco’s modified Eagle’s medium (DMEM) supplemented with 10% inactivated foetal bovine serum (FBS). The DMEM for the NHDF contained 15% non-inactivated FBS. K562 cells were cultured in RPMI medium completed by 10% inactivated FBS. Additionally, the media were supplemented with antibiotics (streptomycin and penicillin – 1% v/v; Sigma-Aldrich). The cell culture was conducted in 75 cm^2 flasks (Nunc) under standard conditions (37 °C, 5% CO2 humidified atmosphere). Furthermore, the cell lines were frequently tested for mycoplasma using the qRT-PCR technique with specific Mycoplasma primers to confirm the lack of contamination.
as §1, §2
(Formazan colour is commonly taken as a measure of viable cells.)

In test [7] the test system is K562. As to the kind of experiment: Monolayer antiproliferative MTS assay. It is filed as cell-based, human. The settings on record: 2D model; for IC50: MTS, 72-h incubation.
Excerpt: as §3, §1, §2

As to `O=[N+]([O-])c1ccc(/C=C/c2ccnc3ccccc23)o1` [Compound 13], the IC50 in test [1] was < 100 nM; in test [4] it was 193 ± 8 nM; in test [4] (Homo sapiens, PANC-1, 72 h), ≤ 200 nM; in test [5], 123 ± 7 nM; in test [5] (Homo sapiens, ASPC1, 72 h), ≤ 200 nM; in test [6] it was 87 ± 7 nM. For the same molecule, the 50% inhibitory concentration (IC50) in test [6] (Homo sapiens, U-251, 72 h) is < 100 nM; in test [7] it was 93 ± 9 nM; in test [7] (Homo sapiens, K562, 72 h), < 100 nM. In addition, in test [2], the hypochromism came out at 10.97%. For the same molecule, in test [3], the “percentage of apoptotic cells” value was found to be 30%. For the same molecule, the “SI (selectivity index) PANC-1” value in test [4] (relative to NHDF) came out at 3.36. Also, the “SI (selectivity index) AsPC-1” value in test [5] (relative to NHDF) is given as 5.28. Moreover, the “SI (selectivity index) U-251” value in test [6] (relative to NHDF) is reported as 7.46. The “SI (selectivity index) K562” value in test [7] (relative to NHDF) stood at 6.98.
